Results as given in PMC8267177, “Cyclic Peptoid-Peptide Hybrids as Versatile Molecular Transporters” (Frontiers in Chemistry, 2021).
Entries after “also recorded” stand apart in the source; their conditions may differ. Non-standard residues stand in square brackets, D forms with d. Residues, ends and D or L forms follow the SMILES beside them. *: point of attachment. RhodamineB = CCN(CC)c1ccc2c(-c3ccccc3C(=O)*)c3ccc(=[N+](CC)CC)cc-3oc2c1; Nphe = O=C(O)CNCc1ccccc1; Nlys = NCCCCNCC(=O)O

Key:
in vitro = type: cell-based; settings: human
Experimental: The cytotoxicity of the macrocyclic hybrids 15–24, as well as their conjugates 15-Rhod to 24-Rhod, was examined using a standard MTT assay in human epithelial cervix carcinoma (HeLa) cells. […] ([Mosmann, 1983]; [Tolosa et al., 2015]) After treatment of HeLa cells with different concentrations of the respective macrocycles 15–24 (0.50─50 µM) for 72 h, no significant cytotoxic effects were observed. […] As shown by many research groups that Rhodamine B by itself is not efficiently entering the cells showing therefore an LD50 > 50 μM, we assume that this the toxicity of the Rhodamine moiety might be higher when increasingly localizing in the mitochondria to a higher amount.
In a 96-well plate (Corning® Costar® 3596 96-Well Cell Culture Cluster), 1.0 × 10^4 HeLa-cells per well of a 96 well plate were cultivated for 16 h. Stock solutions of the single compounds in dimethylsulfoxide were diluted to 0.50 µm, 5.00 µm, and 50.0 µm with cell culture medium (DMEM + 10% FBS + 1% P/S) to ensure a final concentration of DMSO below 0.5%. 100 µL of the prepared DMEM diluted compounds were added to each well and the cells were incubated for 72 h. All experiments were performed in triplicates. Cells that were solely treated with the culture medium containing 0.5% of DMSO served as a negative control. After incubation, the positive control (cells in DMSO plus 0.5% DMSO) was treated with 1% Triton-X. To determine the viability of the cells 20 µL of a freshly prepared solution of 3-(4,5-dimethylthiazol-2-yl)-2,5-diphenyltetrazolium bromide (MTT, 2.73 mg/mL, Sigma-Aldrich®) in culture medium were added to each well and incubated at 37 °C for 4 h. The reaction was stopped using 100 µL of Solubilization Solution / Stop Mix (CellTiter 96® Non-Radioactive Cell Proliferation Assay, Promega). After 24 h, the absorption (A) of every well at 595 nm was monitored using a 96-well plate reader (Ultra Microplate Reader ELx808, Biotech Instruments Inc.).

HeLa cells [1] = test: Localization assay: cellular uptake and organellar localization by confocal microscopy; type: cell-based, human; settings: 5 µM, 5 h, 37 °C
Experimental: As 15-Rhod to 24-Rhod were not toxic at 5 µM the following transport experiments were carried out using this concentration. To study their cellular uptake and organellar localization, HeLa cells were treated with 5 µM of the cyclic conjugates 15-Rhod to 24-Rhod for 5 h and eventually imaged using confocal microscopy (for experimental details, see supplemental Material).
FIGURE 4 Localization of the macrocyclic conjugates 15-Rhod to 24-Rhod in HeLa cells. After incubation with a 5.0 µM solution of the respective transporters for 5 h, the cellular uptake was monitored via fluorescent confocal microscopy (Rhodamine B labeled hybrids: λ Exc = 532 nm, λ Em = 570–620 nm; MitoTracker® Green: λ Exc = 488 nm, λ Em = 490–540 nm; Hoechst 33,342: λ Exc = 405 nm, λ Em = 430–490 nm). Counterstaining with MitoTracker® Green visualized mitochondria (green). Staining with 2 μg/ml Hoechst 33,342 indicated nuclei (blue). Scale bar: 10 µm.
In an 8-well chamber slide (µ-Slide 8-Well ibidiTreat, ibidi®), 1.0 × 10^4 HeLa cells per well were cultivated for 16 h. The cyclic hybrids were diluted with DMEM to yield a 5 µM concentration. The cells were treated with the hybrids for 5 h at 37 °C. To monitor the intracellular localization, the cells were counterstained with MitoTracker® (Invitrogen) and 2 µg/mL Hoechst 33342. After washing with DPBS (3 ×), the luminescence was monitored via life-cell imaging using a Leica TCS-SPE confocal microscope (DM2500 inverse microscope, 8 Bit resolution, 1024 × 1024 pixels), equipped with a 1 Airy pinhole aperture (111.5 µm), ACS APO 63.0x/1.30 OIL UV and 40x/1.14 OIL UV objectives and the images were processed by the Leica Application Suite (LAS-AF) Version 2.1.2 build 4530 software. Images were taken with a scanning frequency of 400 Hz. Background noise was averaged by an eight-fold repetition of the scan process. The cyclic hybrids were excited at 532 nm, MitoTracker® Green at 488 nm, and Hoechst 33342 at 405 nm. The exposure was set to minimize oversaturated pixels in the final images. Fluorescence emission was measured at 570–620 nm for the detection of rhodamine B labeled hybrids, at 490–540 nm for the detection of mitochondria, and 430–490 nm for the detection of nuclei.

HeLa cells [2] = test: Cellular uptake at 4 °C and 37 °C (CLSM, Figure S1); type: cell-based, human; settings: 5 µM, 2 h incubation at 4 °C and 37 °C
Description: The molecular transporters 15-Rhod, 20-Rhod and 22-Rhod are characterized by low cytotoxicity, efficient cellular uptake, and high specificity. Thus, they represent the most promising cyclic hybrids capable of the transport of different cargos into mitochondria. […] The capability of hydrophobic structures to function as molecular transporters is also known for so-called hydrophobic CPPs. However, only a few members of this substance class have been discovered yet. ([Xie et al., 2020]; [Desale et al., 2021]) It is assumed, that hydrophobic CPPs may penetrate cellular membranes in a direct, energy-independent manner dispensing with endocytosis. ([Gao et al., 2002]; [Gao et al., 2011]; [Nakayama et al., 2011]; [Guidotti et al., 2017]; [Tian et al., 2017]) The latter leads to a major challenge as molecular transporters might not escape the endosomes and get degraded instead of reaching their designated targets. […] The efficient internalization at a low temperature led us to the assumption that 22-Rhod might directly penetrate the cell membrane. However, the uptake mechanism of macrocyclic hybrids will be further examined.
Figure S1: Confocal Laser Scanning Microscopy (CLSM) images of HeLa cells after 2 h incubation with 5 µM peptoid 22-Rhod at 4 °C (top line, A) and 37 °C (bottom line, B). […]

cells = settings: free dye, not efficiently entering the cells; ref many research groups (reference not given); cited from earlier work
Experimental: The cytotoxicity of the macrocyclic hybrids 15–24, as well as their conjugates 15-Rhod to 24-Rhod, was examined using a standard MTT assay in human epithelial cervix carcinoma (HeLa) cells. […] ([Mosmann, 1983]; [Tolosa et al., 2015]) After treatment of HeLa cells with different concentrations of the respective macrocycles 15–24 (0.50─50 µM) for 72 h, no significant cytotoxic effects were observed.

Row | Compound | IC50 at 72 h (in vitro) [µM] | Cellular uptake efficiency (HeLa cells [1]; confocal microscopy of Rhodamine B fluorescence (Exc 532 nm, Em 570–620 nm)) | Organellar localization (mitochondria) (HeLa cells [1]; counterstaining with MitoTracker Green, confocal microscopy) | Mitochondrial uptake at 37 °C and at 4 °C (HeLa cells [2]) | LD50 of Rhodamine B by itself (cells) [µM]
1 | CCN(CC)c1ccc2c(-c3ccccc3C(=O)NCCCCN3CC(=O)N(Cc4ccccc4)CC(=O)N(Cc4ccccc4)CC(=O)N(Cc4ccccc4)CC(=O)N[C@@H](Cc4ccccc4)C(=O)N[C@@H](Cc4ccccc4)C3=O)c3ccc(=[N+](CC)CC)cc-3oc2c1 [22-Rhod, cyclo-(l-Phe-N1ph-N1ph-N1ph-N4am(Rhod)-l-Phe)] (cyclo(FF[Nlys](RhodamineB)[Nphe][Nphe][Nphe])) | 44 | efficiently taken up; also recorded: high cellular uptake efficiency | mitochondrial specificity | occurring at 37 °C as well as at 4 °C | –
2 | CCN(CC)c1ccc2c(-c3ccccc3C(=O)O)c3ccc(=[N+](CC)CC)cc-3oc2c1 [Rhodamine B] | – | – | – | – | > 50
